Assay results taken from patent publication US7008949B2, “Heterocyclic compounds which inhibit leukocyte adhesion mediated by α4 integrins” (Elan Pharmaceuticals, Inc., priority 2003, dated 2006).

How the values were obtained:
[1] = Cassette dosing and serum analysis for determination of oral bioavailability; assay type: in vivo, rat; settings: male SD rats, oral cassette of 6 compounds, total dose 10 mg/kg, plasma at 4, 8, 12 h
Method: The oral bioavailability was screened by dosing rats with a cassette, i.e. mixture of 6 compounds per dosing solution. The cassette included 5 test articles and a standard compound, for a total dose of 10 mg/kg. Each compound/test article was converted to the sodium salt with equimolar 1 N NaOH and dissolved in water at 2 mg/mL. The cassette was prepared by mixing equal volumes of each of the six solutions. The cassette dosing solution was mixed well and then the pH was adjusted to 7.5–9. The dosing solution was prepared the day before the study and stirred overnight at room temperature.
Male Sprague Dawley (SD) rats from Charles River Laboratories, 6–8 weeks old were used in this screen. Rats were quarantined for at least one day and had continuous access to food and water. On the night before the administration of the cassette, the rats were fasted for approximately 16 h.
Four SD rats were assigned in each cassette. A single dose of the dosing solution was administered orally to each rat. The dosing volume (5 mL/kg) and time were recorded and rats were fed 2 h after dosing.
Blood samples were collected via cardiac puncture at the following time points: 4 h, 8 h and 12 h. Immediately prior to blood collection, rats were anesthetized with CO2 gas within 10–20 seconds. After the 12-hour samples were collected, the rats were euthanized via CO2 asphyxiation followed by cervical dislocation.
Blood samples were kept in heparinized microtainer tubes under sub-ambient temperature (4° C.) before they were processed. Blood samples were centrifuged (10000 rpm for 5 minutes) and plasma samples were removed and stored in a −20° C. freezer until analyzed for drug levels. Drug levels in the plasma were analyzed using the following protocol for direct plasma precipitation.
The in vivo plasma samples were prepared in a 1.5 mL 96-well plate, by adding, in order, 100 μL of the test plasma, 150 μL of methanol, followed by vortexing for 10–20 seconds. 150 μL of 0.05 ng/μL of an Internal Standard in acetonitrile were added and vortexed for 30 seconds.
The standard curve samples were prepared in a 1.5 mL 96-well plate, by adding, in order, 100 μL of control mouse plasma, followed by 150 μL of methanol and vortexing for 10–20 seconds. 150 μL of 0.05 ng/μL of an Internal Standard in acetonitrile were added and vortexed for 30 seconds. The samples were spiked with 0–200 ng (10 concentrations) of the compound of interest in 50% methanol to obtain a standard curve range of 0.5 ng/mL–2,000 ng/mL. Again, the sample was vortexed for 30 seconds.
The samples were then spun for 20–30 minutes at 3000 rpm in an Eppendorf microfuge before 80–90% of supernatant was transferred into a clean 96-well plate. The organic solvent was then evaporated until the samples were dry (under N2 at 40° C./30–60 min (ZymarkTurbovap)).
The residue was then dissolved in […] mobile phase (50% CH3OH/0.1% TFA). LC/MS/MS was then run using a PE-Sciex API-3000 triple quadurpole mass spectrometer (SN0749707), Perkin-Elmer, Series200auto-sampler, and shimadzu 10A pump. Acquisition was done with PE-Sciex Analyst (v1.1) and data analysis and quantification were accomplished using PE-Sciex Analyst (v1.1). A 5–50 μL sample volume was injected onto a reverse phase ThermoHypersil DASH-18 column (Keystone 2.0×20 mm, 5 μm, PN: 8823025-701) using a mobile phase of 25% CH3OH, 0.1% TFA-100% CH3OH, 0.1% TFA. The run time was about 8 minutes at a flow rate of about 300 μL/minutes.
The Area Under the Curve (AUC) was calculated using the linear trapezoidal rule from t=0 to the last sampling time tx (see Handbook of Basic Pharmacokinetics, Wolfgang A. Ritschel and Gregory L. Kearns, 5th ed, 1999). AUC^0→tx═S((Cn+Cn+1)/2))·(tn+1−tn)[(μg/mL)h]
In the case of the cassette dosing paradigm, samples at 4, 8 and 12 h post extravascular dosing, the AUC was calculated from t=0 to t=12 h.

α4β1 Integrin = molecular target: T1, α4β1 Integrin (Homo sapiens, UniProt P05556+P13612); test: α4β1 Integrin Adhesion Assay: Jurkat cell adhesion to human plasma fibronectin; assay type: cell-based; settings: Jurkat cells
T1 construct: endogenous in cells; host or cells: Jurkat cells
Method: 96 well plates (Costar 3590 EIA plates) were coated with human fibronectin (Gibco/BRL, cat #33016-023) at a concentration of 10 μg/mL overnight at 4° C. The plates were then blocked with a solution of bovine serum albumin (BSA; 0.3%) in saline. Jurkat™ cells (maintained in log phase growth) were labeled with Calcein AM according to the manufacturer's instructions, and suspended at a concentration of 2×10^6 cells/mL in Hepes/Saline/BSA. The cells were then exposed to test and control compounds for 30 minutes at room temperature before transfer to individual wells of the fibronectin coated plate. Adhesion was allowed to occur for 35 minutes at 37° C. The wells were then washed by gentle aspiration and pipetting with fresh saline. Fluorescence associated with the remaining adherent cells was quantified using a fluorescence plate reader at EX 485/EM 530.
Cell cultures were prepared by first splitting the stationary phase Jurkat™ cells at 1:10 on day one, and 1:2 on day two to perform assay on day 3. The cells split 1:10 on day one were split 1:4 on day 3 for a day 4 assay.
The assay plates were prepared by first making a working solution of Gibco/BRL Human Fibronectin (cat # 33016-023) in PBS++, at 10 μg/mL.
A Costar 3590 EIA plate was then coated with 50 μL/well for 2 hours at room temperature (thought it can also be left overnight at 4° C.). Finally the plate was asperated and blocked with Hepes/Saline Buffer, 100 μL/well, for 1 hour at RT followed by washing three times with 150 μL of PBS++.
Compound dilutions were accomplished by preparing 1:3 serial dilutions of compounds as follows. For each plate (4 compounds/plate) 600 μL were added to 4 Bio-Rad Titertubes in a Titertube rack. Enough compound was added to each appropriate tube to give a 2× concentration using methods well known in the art. Using Falcon Flexiplates, 100 μL of Hepes/Saline buffer or human serum were added to rows B through G. A multi-channel pipetter set to 180 μL was used to with four tips spaced evenly the pipetter. Each set of four tubes was mixed 5 times and 180 μL of 2× compound was transferred to the first column of each compound dilution in Row B, leaving Row A empty. 180 μL were added to the other wells in Row A. Serial dilutions were performed down the plate by transferring 50 μL to the next dilution and mixing 5 times, changing tips each time after mixing. Dilutions were stopped at Row F. Row G had no compound present.
A 20 μg/mL solution in Hepes/Saline buffer or human serum, of 21/6 antibody was the positive control and was set aside in a reagent trough to add to cell suspension plate.
The cell staining was accomplished by first harvesting the log-phase Jurkat™ cells by centrifugation in 50 mL tubes (1100 rpm for 5 minutes). The cells were resuspended in 50 mL PBS++, spun, and resuspend in 20 mL PBS++. The cells were stained by adding 20 μL of Calcein AM for 30 minutes R.T. The volume was brought to 50 mL with Hepes/Saline buffer and the cells were counted, spun, and resuspend to 2×10^6 cells/mL in Hepes/Saline buffer or human serum.
The compounds were incubated using the following procedure. In a new flexiplate, 65 μL of stained cells were added to Rows B through H. Then 65 μL of 2× compounds were added to the appropriate rows following the plate setup and mixed 3×. 65 μL of 2×-21/6 antibody were added to Row H and mixed 3×. Finally the plate was incubated at room temperature for 30 minutes.
Fibronectin adhesion was measured using a fluorescent plate reader at EX 485/EM 530 after the following work up procedure. After incubation, the cells were mixed 3× and 100 μL were transferred to the Fibronectin coated plates and incubated at 37° C. for about 35 minutes. Each plate was washed, row by row, by gently pipetting 100 μL of R.T. PBS++ down the sides of the wells and turning the plate 90 degrees to aspirate. This procedure was repeated for a total of 3 washes. Each well was filled with 100 μL after washing by pipetting down the side of the well. […]

[2] = IC50, Cell Adhesion to Human Plasma Fibronectin (With Human Serum), with human serum
[3] = IC50, Cell Adhesion to Human Plasma Fibronectin (Without the Human Serum), without human serum

T1 sequence (P13612 34-1032): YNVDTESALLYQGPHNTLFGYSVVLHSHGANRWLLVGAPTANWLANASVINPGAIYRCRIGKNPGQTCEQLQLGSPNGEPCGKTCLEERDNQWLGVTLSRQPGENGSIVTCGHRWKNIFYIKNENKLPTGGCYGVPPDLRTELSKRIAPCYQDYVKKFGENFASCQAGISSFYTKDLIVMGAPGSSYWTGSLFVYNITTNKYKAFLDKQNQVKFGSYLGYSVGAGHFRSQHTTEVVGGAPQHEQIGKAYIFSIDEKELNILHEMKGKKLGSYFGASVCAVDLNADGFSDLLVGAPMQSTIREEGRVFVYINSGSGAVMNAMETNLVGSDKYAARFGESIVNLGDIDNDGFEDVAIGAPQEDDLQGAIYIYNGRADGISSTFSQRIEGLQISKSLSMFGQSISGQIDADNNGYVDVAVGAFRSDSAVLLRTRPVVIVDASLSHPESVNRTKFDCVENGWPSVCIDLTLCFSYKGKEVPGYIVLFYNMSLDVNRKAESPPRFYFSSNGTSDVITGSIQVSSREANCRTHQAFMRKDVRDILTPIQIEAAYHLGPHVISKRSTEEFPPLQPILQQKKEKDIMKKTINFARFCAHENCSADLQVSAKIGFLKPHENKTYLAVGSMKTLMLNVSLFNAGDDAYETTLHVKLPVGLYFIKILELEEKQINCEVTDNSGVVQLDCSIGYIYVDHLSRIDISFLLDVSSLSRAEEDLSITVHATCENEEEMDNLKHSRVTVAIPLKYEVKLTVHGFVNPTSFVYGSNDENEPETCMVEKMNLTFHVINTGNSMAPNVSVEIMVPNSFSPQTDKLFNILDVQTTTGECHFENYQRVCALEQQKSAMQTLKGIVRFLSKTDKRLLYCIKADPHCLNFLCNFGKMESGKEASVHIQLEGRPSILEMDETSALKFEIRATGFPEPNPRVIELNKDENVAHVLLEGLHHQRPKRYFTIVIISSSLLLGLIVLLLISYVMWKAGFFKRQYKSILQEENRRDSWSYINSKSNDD
T1 sequence (P05556 21-798): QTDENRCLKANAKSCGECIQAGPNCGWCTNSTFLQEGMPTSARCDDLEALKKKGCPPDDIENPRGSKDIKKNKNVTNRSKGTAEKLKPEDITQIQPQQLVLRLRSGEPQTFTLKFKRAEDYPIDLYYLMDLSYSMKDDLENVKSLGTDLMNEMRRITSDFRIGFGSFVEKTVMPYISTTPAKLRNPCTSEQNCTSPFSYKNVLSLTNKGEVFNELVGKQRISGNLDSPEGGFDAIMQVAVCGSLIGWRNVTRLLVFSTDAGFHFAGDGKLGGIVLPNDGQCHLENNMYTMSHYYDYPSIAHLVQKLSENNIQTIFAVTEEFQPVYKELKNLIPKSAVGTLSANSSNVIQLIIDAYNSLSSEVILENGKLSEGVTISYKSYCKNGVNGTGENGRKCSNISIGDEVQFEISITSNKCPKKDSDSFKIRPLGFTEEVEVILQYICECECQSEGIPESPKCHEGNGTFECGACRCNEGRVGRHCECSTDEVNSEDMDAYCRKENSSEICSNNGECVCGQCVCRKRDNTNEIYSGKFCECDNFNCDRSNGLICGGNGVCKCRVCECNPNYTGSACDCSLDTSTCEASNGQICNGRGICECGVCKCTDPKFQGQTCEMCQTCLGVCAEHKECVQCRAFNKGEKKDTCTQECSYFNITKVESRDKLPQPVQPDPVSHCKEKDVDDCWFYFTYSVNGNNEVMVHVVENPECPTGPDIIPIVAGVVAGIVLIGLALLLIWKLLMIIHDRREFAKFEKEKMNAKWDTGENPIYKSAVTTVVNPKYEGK

Compound | AUC (average AUC 0→12 h) [1] | IC50 (α4β1 Integrin; [2]) [nM] | IC50 (α4β1 Integrin; [3]) [nM] | IC50, Cell Adhesion to Human Plasma Fibronectin (With Human Serum) (α4β1 Integrin; with human serum) [µg/mL] | IC50, Cell Adhesion to Human Plasma Fibronectin (Without the Human Serum) (α4β1 Integrin; without human serum) [µg/mL]
CCN(CC)c1ncc(N(C(C)C)S(=O)(=O)c2ccc(Cl)cc2)c(N[C@@H](Cc2ccc(OC(=O)N(C)C)cc2)C(=O)O)n1 [Example 11] | 0.4251 (μg/mL)h | 362 | 3.85 |  | 
CCN(CC)c1ncc(N(CC)S(=O)(=O)c2ccc(F)cc2F)c(N[C@@H](Cc2ccc(OC(=O)N(C)C)cc2)C(=O)O)n1 [Example 18] | 0.2578 (μg/mL)h | 40.3 | 3.22 |  | 
CCN(CC)c1ncc(N(C)S(=O)(=O)c2ccc(Cl)c(Cl)c2)c(N[C@@H](Cc2ccc(OC(=O)N(C)C)cc2)C(=O)O)n1 [Example 4] | 0.5965 (μg/mL)h | 625 | 6.25 |  | 
2-{2-diethylamino-5-[(4-chlorobenzenesulfonyl)methylamino]pyrimidin-4-ylamino}-3-(4-dimethylcarbamoyloxyphenyl)propionic acid [Example 2] | 1.8689 (μg/mL)h |  |  | 0.317 | 0.002
